The target of the assay is T1, leucine aminopeptidase of human placenta origin (PLAP), purified from human retroplacental sera, containing SEQ ID NOs: 1, 2, 3 and 4 (Homo sapiens, UniProt Q9UIQ6).
T1 construct: PLAP was purified by fractionating 900 ml of retroplacental sera by ammonium sulfate fractionation; from tissue; host or cells: human retroplacental sera
The assay can be described thus: PLAP enzyme assay with L-leucyl-P-nitroanilide as substrate (Lineweaver-Burk plot). In kind it is biochemical. Here is the method: An assay of PLAP was carried out according to a method of Kurauchi et al. (Kurauchi, O. et al. Enzyme, 35, p197-205, 1986) using L-leucyl-P-nitroanilide as a substrate. Namely, a substrate adjusted to 1.6 mM of a final concentration was added to a 20 mM Tris-HCl buffer (pH 7.2) (1.0 ml) in the presence of a 20 mM L-methionine, and the mixture was incubated at 37°C for 10 minutes. After finishing the reaction, 3.0 ml of a 1M acetate buffer (pH 4.2) was added to terminate the reaction, and the amount of released P-nitroanilide was measured by absorption of 405 nm. One unit of the enzyme is defined as an activity of the enzyme that releases 1 µ mole of the P-nitroanilide for one minute.

[1] abbreviates: purified PLAP, calculated according to Lineweaver-Burk plot, 20 mM Tris-HCl buffer (pH 7.2), 37°C.

T1 sequence (Q9UIQ6 155-1025 limits assumed): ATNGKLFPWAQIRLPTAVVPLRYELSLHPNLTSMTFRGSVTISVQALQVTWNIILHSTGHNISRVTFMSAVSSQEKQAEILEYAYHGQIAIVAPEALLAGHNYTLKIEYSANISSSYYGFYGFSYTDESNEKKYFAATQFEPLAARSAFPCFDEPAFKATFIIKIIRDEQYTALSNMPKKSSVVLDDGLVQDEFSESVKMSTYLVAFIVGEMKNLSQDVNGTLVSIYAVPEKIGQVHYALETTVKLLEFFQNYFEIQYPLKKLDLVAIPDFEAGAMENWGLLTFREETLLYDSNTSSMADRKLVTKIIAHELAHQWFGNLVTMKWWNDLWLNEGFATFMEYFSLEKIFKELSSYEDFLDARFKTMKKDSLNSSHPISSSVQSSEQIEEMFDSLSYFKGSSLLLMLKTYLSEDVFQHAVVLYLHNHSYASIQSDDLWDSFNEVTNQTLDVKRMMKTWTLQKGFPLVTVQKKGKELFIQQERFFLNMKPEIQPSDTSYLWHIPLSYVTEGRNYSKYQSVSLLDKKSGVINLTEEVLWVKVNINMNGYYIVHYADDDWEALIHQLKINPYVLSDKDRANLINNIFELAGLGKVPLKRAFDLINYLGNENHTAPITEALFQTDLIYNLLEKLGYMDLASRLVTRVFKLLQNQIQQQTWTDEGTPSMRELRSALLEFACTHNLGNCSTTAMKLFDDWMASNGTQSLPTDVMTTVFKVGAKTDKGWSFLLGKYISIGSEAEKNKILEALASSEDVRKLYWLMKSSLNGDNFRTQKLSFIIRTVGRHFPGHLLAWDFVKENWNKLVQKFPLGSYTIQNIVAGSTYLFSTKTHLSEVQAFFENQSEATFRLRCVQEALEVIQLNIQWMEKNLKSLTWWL

As for `CC(C)C[C@H](N)C(=O)Nc1ccc([N+](=O)[O-])cc1` [L-Leucyl-P-nitroanilide], under setting [1], the “Km value for degradation of L-Leucyl-P-nitroanilide” value is given as 4.17 mM and the “Vmax for degradation of L-Leucyl-P-nitroanilide” value was 108 µmol/min/g. Consider `CSCC[C@H](N)C(=O)O` [L-methionine], for which, where the note is “assay carried out in the presence of 20 mM L-methionine, substrate 1.6 mM”, the “inhibition of L-leucyl-P-nitroanilide degrading activity by L-methionine” value is recorded as “not inhibited”.

The values are drawn from patent publication EP0535241A1, “NOVEL LEUCINE AMINOPEPTIDASE” (SUNTORY LIMITED, priority 1991, dated 1992).
